Assay results: patent publication US10905656B2, “Methods and compositions for treating arteriosclerotic vascular diseases” (GOLDEN BIOTECHNOLOGY CORPORATION, priority 2012, dated 2021)

Key:
[1] = tested on: PDGF-stimulated A7r5 cells; test: Wound scratching test, PDGF-stimulated smooth muscle cell migration; format: cell-based, Rattus norvegicus; details: 3 μg/ml, 24 hours
Experimental: 1. A7r5 cells (5×10^6 cells/ml) were seeded onto a 6-well cell culture plate and incubated at 37° C. overnight.
2. 1×PBS was used to wash the wells twice. Compound 1 with different concentrations in DMEM culture medium containing 1% FBS was added and pretreated for 20 hours.
3. A cross-shape acellular space was created by a sterile 200 μl pipette tip and washed twice with 1×PBS.
4. After removing PBS, 2 ml PDGF in DMEM culture medium containing 1% FBS were added. The cells were photographed by a microscope at 0, 6, 12 and 24 hours, respectively from the time of adding PDGF.
The inhibition of Compound 1 on migration of smooth muscle cells (A7r5 cells) was investigated in a wound scratching test by measuring PDGF-stimulated cell migration distance. The PDGF-stimulated cell culture without Compound 1 treatment was used as positive control.

[2] = tested on: PDGF-stimulated A7r5 cells; test: PDGF-stimulated smooth muscle cell proliferation, MTT assay; format: cell-based, Rattus norvegicus; details: 3 μg/ml, 20 hours pretreatment, PDGF 24 hours
Description: (§1) MTT assay is commonly used to determine cell proliferation, percent of viable cells, and cytotoxicity. MTT (3[4,5-dimethylthiazol-2-yl]2,5-diphenyltetrazolium bromide) is a yellow dye, which can be absorbed by the living cells and be reduced to purplish blue formazan crystals by succinate tetrazolium reductase in mitochondria. Formazan formation can therefore be used to assess and determine the survival rate of cells. A solubilization solution (usually either dimethyl sulfoxide, an acidified ethanol solution, or a solution of the detergent sodium dodecyl sulfate in diluted hydrochloric acid) is added to dissolve the insoluble purple formazan product into a colored solution. The absorbance of this colored solution can be quantified by measuring at a certain wavelength (usually between 500 and 600 nm) by a spectrophotometer. The more surviving cells, the higher the absorbance. The percentage of cell survival (%)=OD value of experimental group÷OD value of control group×100%. Procedure
(§2) 1. Adherence of cells: 2×10^4 cells/ml/well of A7r5 cells were seeded onto a 24-well plate and incubated at 37° C. for 24 hours.
2. Dosing: 500 ul/well different concentrations of compound 1 were pretreated in culture medium containing 1% FBS/DMEM for 20 hours. […]
3. […] The survival rate of cells was calculated based on the measurement of absorption at the 570 nm wavelength by ELISA reader. […]

LDLR mRNA = LDLR mRNA expression in HepG2 by RT-PCR; format: cell-based, human; details: HepG2, after addition of compound
Experimental: FIG. 10A-B show results of LDLR mRNA expression in HepG2 cell line induced by an exemplary cyclohexenone Compound 1. HepG2 cell line was serum-starved overnight and challenged with 20 μM Compound 1 at indicated time intervals (1A). Cells were then collected and the mRNA expression level of LDLR and GAPDH (internal control) were detected by RT-PCR. The relative expression level of LDLR to GAPDH was quantified by densitometry (1B). Experiments were conducted in triplicate. Bar represented as mean±SEM. * indicates p<0.05 and ** indicates p<0.01.
HepG2 cells were cultured in MEM alpha medium (Invitrogen/Gibco BRL, Grand Island, N.Y., USA). Cells were cultured at 37° C. in 5% CO2 in culture media supplemented with 10% fetal bovine serum (Invitrogen/Gibco BRL) and 100 U/ml streptomycin and penicillin (Invitrogen/Gibco BRL). For treatment, cells were seeded in six-well plates at 6.25×10^5 cells/well. On the following day, the media were changed to serum-free and the cells were serum-starved for 24 h. Compound 1 was dissolved in DMSO and diluted to the required concentration with serum-free medium. Cultures were then treated with diluted Compound 1 for the indicated time periods. […]
LDLR mRNA expression level was quantitative analysis by RT-PCR. […] The PCR products intensity was quantified by densitometry using Image-Pro Plus software (Media Cybernetics, Silver Spring, Md.).

[3] = tested on: mice with carotid artery ligation; test: Carotid artery ligation model, neointima formation; format: in vivo, C57BL/6J mice; details: 60 mg/kg body weight oral gavage, from three days before ligation, 28 days; control higher than 3.0; p<0.001
Description: Arteries are vessels that carry blood away from the heart. The carotid arteries are blood vessels that supply blood to the head, neck and brain. One carotid artery is position on each side of the neck. The right common carotid artery branches from the brachiocephalic artery and extends up the right side of the neck. The left common carotid artery branches from the aorta and extends up the left side of the neck. Each carotid artery branches into internal and external vessels near the top of the thyroid. Following the study by Hsing-Chun Chung (Dissertation, 2008, Southern Taiwan University), the carotid artery ligation was conducted on the left common carotid artery in mice to induce neointimal thickening.
This experiment used 8-week-old C57BL/6J male mice having about 25 g of body weight, which were purchased from National Laboratory Animal Center. These mice were maintained at the Laboratory Animal center of National Defense Medical Center on a 12 hour dark/12 hour light cycle in air conditional rooms (18-26° C., 30%-70% humidity).
1. The animals were given Compound 1 by oral gavage three days prior to the surgery and were continuously fed with Compound 1 for 28 days by oral gavage.
2. […]

[4] = tested on: A7r5 cells (rat aortic smooth muscle cells); test: Lactate dehydrogenase (LDH) activity assay, cytotoxicity; format: cell-based; details: 0 μg/ml-3 μg/ml, 24 hours
Description: Cells have plenty of lactate dehydrogenase (LDH). When cells are healthy, LDH cannot freely cross cell membrane. […] LDH activity in the culture medium is directly proportional to the number of dead cells. The cell viability can be measured quantitatively to detect absorbance by using colorimetric method at a wavelength of 492 nm. The change of the absorbance values come from the fact that LDH catalyzes the conversion of lactate to pyruvate with the concomitant production of NADH. The NADH, in the presence of diaphorase and tetrazolium salt INT, is used to drive the diaphorase-catalyzed production of red formazan product. The present experiment utilizes Cytotoxicity Assay Kit (Promega) to conduct culture medium LDH Quantitation assay.
as §2
2. Dosing: 500 ul/well different concentrations of compound 1 were formulated in culture medium containing 10% FBS/DMEM and incubated for 24 hours. […]
3. […] Absorbance was measured by ELISA reader at the 490 nm wavelength.
(§3) Potential cytotoxicity of Compound 1 to smooth muscle cells was tested. […] As shown in FIGS. 2A/2B, the cytotoxic effect of Compound 1 at different concentrations on smooth muscle cells (A7r5) was determined via MTT assay (FIG. 2A) and LDH assay (FIG. 2B).

ERK1/2 = ERK1/2 phosphorylation in HepG2 by immunoblot; format: cell-based, human; details: HepG2, 1 h, immunoblot p-ERK1/2
Experimental: FIG. 11A-B show illustrative effective results of the exemplary cyclohexenone Compound 1 stimulates ERK1/2 phosphorylation in HepG2 cell line. (2A), HepG2 cell line was serum-starved overnight and challenged with the indicated concentrations of Compound 1 for 1 h. Whole cell lysates were then immunoblotted with phosphor-ERK1/2 antibody and reprobed with β-actin antibody. Duplicated membrane was probed with ERK1/2 antibody. (2B), the relative expression level of p-ERK1/2 to β-actin was quantified by densitometry. Experiments were conducted in triplicate. Bar represented as mean±SEM.
HepG2 cells were cultured in MEM alpha medium (Invitrogen/Gibco BRL, Grand Island, N.Y., USA). […]
Sixty micrograms of total protein in cell lysate, which was measured using Bradford assay (Sigma-Aldrich, St. Louis, Mo.), was resolved on 12.5% SDS polyacrylamide gels. […] Blots were blocked with 3% BSA and probed with a 1:1,000 dilution of antibodies to phospho-p44/42 (ERK1/2)(Thr202/Tyr204) (Cell Signaling Technology, USA), p44/42MAPK(ERK1/2) (Cell Signaling Technology, USA) or β-actin (Sigma-Aldrich, St. Louis, Mo.), then horse radish-peroxidase (HRP)-conjugated secondary antibody and detected by 3,3′-diaminobenzidine (DAB) substrate kit for peroxidase (Vector Laboratories, Burlingame, Calif.). […]

[5] = tested on: A7r5 cells (rat aortic smooth muscle cells); test: MTT assay, cytotoxic effect on smooth muscle cells; format: cell-based; details: 0 μg/ml-3 μg/ml, 24 hours
Description: as §1
1. […]
3. […] The survival rate of cells was calculated based on the measurement of absorption at the 570 nm wavelength by ELISA reader.
as §3

## COC1=C(OC)C(O)C(C/C=C(\C)CC/C=C(\C)CCC=C(C)C)C(C)C1=O (centres unmarked) [Compound 1, 4-hydroxy-2,3-dimethoxy-6-methyl-5-(3,7,11-trimethyldodeca-2,6,10-trienyl)cyclohex-2-enone]
[1]
  decrease in PDGF-stimulated smooth muscle cell migration: about 50%
[2]
  reduction of PDGF-stimulated smooth muscle cell proliferation: about 50%
LDLR mRNA
  time at which LDLR mRNA expression was first increased: 2 h
LDLR mRNA; increased up to 6 h
  time at which the LDLR mRNA increase reached a significant level: 4 h
[3]
  average N/M ratio (neointima area/medial area): 1.0
[4]
  cytotoxicity (LDH assay): no cytotoxcity has been observed
ERK1/2
  concentration enough to induce activation of ERK1/2: 0.5 µM
[5]
  survival rate of cells (MTT assay): cell purification was not affected by the drug treatment
